Laboratory results reported in patent US12595269B2, “Morpholine-like monoamine releasers” (Solvonis Therapeutics Ireland Holdings Limited, priority 2022, dated 2026).

Test system: extracellular dopamine (DA), serotonin (5-HT), and noradrenaline (NE) levels in the nucleus accumbens
Assay: In vivo microdialysis of monoamines in rat nucleus accumbens after intraperitoneal administration
Design: species or system Sprague Dawley rats
Settings: rat NAcc microdialysis, IP
Protocol: Methods and Procedure: This study was conducted in compliance with previously described procedures to assure data integrity, adherence to GLP regulations, and standard preclinical study and surgery procedures. The in vivo microdialysis technique was applied to measure the over-time variations of DA, 5-HT, and NE extracellular (EC) concentrations in conscious, freely-moving Sprague Dawley rats. Levels of the neurotransmitters in microdialysis samples were determined using LC-MS/MS analysis. The experiment was also conducted with MDMA, which was used for comparative purposes.
As it relates to cannula implantation, the rats were anesthetized with isoflurane 4% in oxygen (2-2.5 L/min), then the isoflurane concentration 2-2.5% was maintained via a nose cone adapted to the stereotaxic apparatus. The rats were treated with meloxicam (0.2 mg/kg, subcutaneously, sc; Meloxidolor) and amoxicilline (150 mg/kg, sc, Betamox LA). The skull was then shaved and disinfected. Rats were then placed in a stereotaxic apparatus for small animals. One vertical guide cannula was inserted through a 1 mm hole drilled on the exposed skull. Coordinates—with respect to bregma—to target specific brain areas, followed indications from stereotaxic atlas of the rat brain. Specifically a guide cannula (MAB 4.12.IC, Agn Tho's AB, Lidingo, Sweden) was inserted in the NAcc (anteroposterior+1.6; lateral −1.6; dorsoventral −6.0). The guide cannula was then secured with dental cement and 2-4 screws. At the end of the surgery the animal was isolated in a single cage during recovery, for a period of at least one week, during which animal health conditions were checked twice daily and the weight recorded twice a week. Animals continued to be housed singly throughout the experiment. One day before the experiment the cannula stylet was removed and a microdialysis probe with a dialyzing length of 2 mm (MAB 4.12.2 Cu, Agn Tho's AB, Lidingo, Sweden) was inserted. Probes can be re-used 2 times for 2 experimental sessions after appropriate cleaning with fresh milliQ water.
Post-surgery, the rats were maintained in a heating chamber prior to waking up in order to avoid hypothermia that could be caused by anaesthesia. 5 mL of physiologic solution was subcutaneously administered immediately after surgery, and once/day for 2-3 days, if signs of dehydration are noticed. Meloxicam (Meloxidolor) 0.2 mg/kg was again administered subcutaneously the day after surgery as well as after 48h after surgery together with Amoxicilline Long Acting (Betamox LA) 150 mg/kg. Health status and body weight was checked every day during the first week.
The animals were treated with test compounds described herein, MDMA, or their vehicle (saline) according to a Latin square design over 5 separate experimental days (one day/week). The treatments were administered in a volume of 1 mL/kg intraperitoneally.
On the day of the experiment, each animal was taken into the laboratory in its home cage. Inlet tubing of the probe was attached to a dual quartz-lined two channel liquid swivel mounted on a low mass spring counterbalance arm which, in turn, was connected to a gas-tight syringe on a microinfusion pump. […] An equilibration period of about two hours of perfusion was allowed before collecting samples. Following the equilibration period, 4 basal samples were collected for each experimental animal followed by further 10 post-treatment samples. Samples were collected every 20 minutes (up to 3 hours and 20 minutes post-treatment) by means of a refrigerated auto-sampler (Univentor 820 Microsampler, Agn tho's, Sweden) maintained at +8° C. At the end of all experimental sessions, 2 μL of 0.1% methylene blue solution was injected through the microdialysis probe, animals were euthanized, and their brains removed to confirm the correct probe-position.
The concentrations of DA, 5-HT and NE in CSF samples were determined using an optimized method based on LC-MS/MS analysis. […]

Row | SMILES | 5HT level relative to baseline levels (100%) (20 min post-administration) [%] | DA level relative to baseline levels (100%) (20 min post-administration) [%] | NE level relative to baseline levels (100%) (20 min post-administration) [%] | 5HT level relative to baseline levels (100%) (40 min post-administration) [%] | DA level relative to baseline levels (100%) (40 min post-administration) [%] | NE level relative to baseline levels (100%) (40 min post-administration) [%] | 5HT level relative to baseline levels (100%) (60 min post-administration) [%] | DA level relative to baseline levels (100%) (60 min post-administration) [%] | NE level relative to baseline levels (100%) (60 min post-administration) [%] | 5HT level relative to baseline levels (100%) (200 min post-administration) [%] | DA level relative to baseline levels (100%) (200 min post-administration) [%] | NE level relative to baseline levels (100%) (200 min post-administration) [%]
1 | Clc1ccc(C23CNC(CO2)C3)cc1Cl (centres unmarked) [522A, 1-(3,4-dichlorophenyl)-2-oxa-5-azabicyclo[2.2.1]heptane] | 100 | 100 | 130 | 380 | 160 | 150 | 480 | 185 | 160 | 200 | 125 | 125
2 | CNC(C)Cc1ccc2c(c1)OCO2 (centres unmarked) [MDMA, reference compound] | 130 | 120 | 120 | 2150 | 400 | 500 |  | 560 | 500 | 900 | 300 | 300
